# Source: US20260042764A1, “COMPOSITIONS AND METHODS FOR INHIBITION OF KRAS” (TheRas, Inc., priority 2022, published 2026)
# Biological target: T1, Avi-KRAS G12R (1-169) GppNHp/RAF1 RBD-3xFLAG (52-151) (Homo sapiens, UniProt P01116, G12R)
# T1 construct: Avi-KRAS G12R (1-169)
# Assay: Raf1-KRAS G12R-GppNHP disruption HTRF assay (Biological Example 1)
# Format: binding
# Settings: KRAS G12R, GppNHp-loaded; Table 11
# Procedure, shortened: (§1)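 Read-out is HTRF signal of the KRAS–RAF1 RBD complex, reported as percentage of activity relative to DMSO (100%). Protein mix and detection reagents each incubated 1 h at room temperature with 700 rpm shaking. Buffer: 50 mM Tris pH 7.5, 100 mM NaCl, 5 mM MgCl2, 0.1% BSA, 0.01% Tween, 10% DMSO.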
# T1 sequence (P01116 1-169 isoform P01116-2 G12R): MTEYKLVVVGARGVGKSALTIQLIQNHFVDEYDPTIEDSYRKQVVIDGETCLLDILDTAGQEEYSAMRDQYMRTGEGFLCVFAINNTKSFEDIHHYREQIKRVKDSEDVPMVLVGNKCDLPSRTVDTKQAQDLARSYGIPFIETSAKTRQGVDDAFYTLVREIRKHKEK
row,Compound,IC50 [nM]
1,N#Cc1c(N)sc2c(F)ccc(-c3c(C(F)(F)F)cc4c(N5CCN(CCO)C(=O)C5)nc(OC[C@@]56CCCN5C[C@H](F)C6)nc4c3F)c12 [Compound 121],100 to 1000
2,N#Cc1c(N)sc2c(F)ccc(-c3c(C(F)(F)F)cc4c(N5CC[C@H](CO)C5)nc(OC[C@@]56CCCN5C[C@H](F)C6)nc4c3F)c12 [Compound 123],100 to 1000
3,N#Cc1c(N)sc2c(F)ccc(-c3c(C(F)(F)F)cc4c(N5CC[C@@H](CO)C5)nc(OC[C@@]56CCCN5C[C@H](F)C6)nc4c3F)c12 [Compound 124],100 to 1000
4,N#Cc1c(N)sc2c(F)ccc(-c3c(C(F)(F)F)cc4c(N5CC[C@H](O)C5)nc(OC[C@@]56CCCN5C[C@H](F)C6)nc4c3F)c12 [Compound 125],100 to 1000
5,N#Cc1c(N)sc2c(F)ccc(-c3c(C(F)(F)F)cc4c(N5CC[C@@H](O)C5)nc(OC[C@@]56CCCN5C[C@H](F)C6)nc4c3F)c12 [Compound 126],100 to 1000
6,N#Cc1c(N)sc2c(F)ccc(-c3c(C(F)(F)F)cc4c(N5CCC(O)CC5)nc(OC[C@@]56CCCN5C[C@H](F)C6)nc4c3F)c12 [Compound 127],100 to 1000

# System: GP2d cells (KRAS G12D)
# Assay: Cell-based pERK HTRF assay in GP2d cell (Biological Example 2)
# Settings: GP2d, GP2d (KRAS G12D) cells, pERK HTRF
# Procedure, shortened: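 Treatment with test compounds lasted one hour in DMEM containing 10% FBS, with DMSO held at 0.25%. Dilution series: 9 points, half-log spacing, highest 1 μM or 100 nM. Lysates were incubated 4–24 h at room temperature with antibody mix, then HTRF was read at 320 nm excitation.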
row,Compound,IC50 [nM]
1,N#Cc1c(N)sc2c(F)ccc(-c3c(C(F)(F)F)cc4c(N5CCN(CCO)C(=O)C5)nc(OC[C@@]56CCCN5C[C@H](F)C6)nc4c3F)c12 [Compound 121],100 to 1000
2,N#Cc1c(N)sc2c(F)ccc(-c3c(C(F)(F)F)cc4c(N5CC[C@H](CO)C5)nc(OC[C@@]56CCCN5C[C@H](F)C6)nc4c3F)c12 [Compound 123],< 100
3,N#Cc1c(N)sc2c(F)ccc(-c3c(C(F)(F)F)cc4c(N5CC[C@@H](CO)C5)nc(OC[C@@]56CCCN5C[C@H](F)C6)nc4c3F)c12 [Compound 124],100 to 1000
4,N#Cc1c(N)sc2c(F)ccc(-c3c(C(F)(F)F)cc4c(N5CC[C@H](O)C5)nc(OC[C@@]56CCCN5C[C@H](F)C6)nc4c3F)c12 [Compound 125],< 100
5,N#Cc1c(N)sc2c(F)ccc(-c3c(C(F)(F)F)cc4c(N5CC[C@@H](O)C5)nc(OC[C@@]56CCCN5C[C@H](F)C6)nc4c3F)c12 [Compound 126],< 100
6,N#Cc1c(N)sc2c(F)ccc(-c3c(C(F)(F)F)cc4c(N5CCC(O)CC5)nc(OC[C@@]56CCCN5C[C@H](F)C6)nc4c3F)c12 [Compound 127],< 100

# Biological target: T2, Avi-KRAS G12D (1-169) GppNHp/RAF1 RBD-3xFLAG (52-151) (Homo sapiens, UniProt P01116, G12D)
# T2 construct: Avi-KRAS G12D (1-169)
# T2 sequence (P01116 1-169 isoform P01116-2 G12D): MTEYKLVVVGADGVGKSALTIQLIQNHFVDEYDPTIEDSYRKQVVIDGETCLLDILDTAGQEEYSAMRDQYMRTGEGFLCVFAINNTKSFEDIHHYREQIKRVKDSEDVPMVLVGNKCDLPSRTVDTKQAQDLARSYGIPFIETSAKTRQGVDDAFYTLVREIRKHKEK
# Assay: Raf1-KRAS G12D-GppNHP disruption HTRF assay (Biological Example 1)
# Format: binding
# Settings: KRAS G12D, GppNHp-loaded; Table 11
# Procedure, shortened: as §1
row,Compound,IC50 [nM]
1,N#Cc1c(N)sc2c(F)ccc(-c3c(C(F)(F)F)cc4c(N5CCN(CCO)C(=O)C5)nc(OC[C@@]56CCCN5C[C@H](F)C6)nc4c3F)c12 [Compound 121],100 to 1000
2,N#Cc1c(N)sc2c(F)ccc(-c3c(C(F)(F)F)cc4c(N5CC[C@H](CO)C5)nc(OC[C@@]56CCCN5C[C@H](F)C6)nc4c3F)c12 [Compound 123],100 to 1000
3,N#Cc1c(N)sc2c(F)ccc(-c3c(C(F)(F)F)cc4c(N5CC[C@@H](CO)C5)nc(OC[C@@]56CCCN5C[C@H](F)C6)nc4c3F)c12 [Compound 124],100 to 1000
4,N#Cc1c(N)sc2c(F)ccc(-c3c(C(F)(F)F)cc4c(N5CC[C@H](O)C5)nc(OC[C@@]56CCCN5C[C@H](F)C6)nc4c3F)c12 [Compound 125],100 to 1000
5,N#Cc1c(N)sc2c(F)ccc(-c3c(C(F)(F)F)cc4c(N5CC[C@@H](O)C5)nc(OC[C@@]56CCCN5C[C@H](F)C6)nc4c3F)c12 [Compound 126],100 to 1000
6,N#Cc1c(N)sc2c(F)ccc(-c3c(C(F)(F)F)cc4c(N5CCC(O)CC5)nc(OC[C@@]56CCCN5C[C@H](F)C6)nc4c3F)c12 [Compound 127],100 to 1000

# Biological target: T3, Avi-KRAS G12V (1-169) GppNHp/RAF1 RBD-3xFLAG (52-151) (Homo sapiens, UniProt P01116, G12V)
# T3 construct: Avi-KRAS G12V (1-169)
# T3 sequence (P01116 1-169 isoform P01116-2 G12V): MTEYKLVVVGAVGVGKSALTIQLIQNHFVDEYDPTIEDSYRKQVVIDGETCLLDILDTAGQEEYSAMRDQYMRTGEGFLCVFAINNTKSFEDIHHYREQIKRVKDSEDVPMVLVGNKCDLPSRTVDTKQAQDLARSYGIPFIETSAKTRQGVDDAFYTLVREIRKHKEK
# Assay: Raf1-KRAS G12V-GppNHP disruption HTRF assay (Biological Example 1)
# Format: binding
# Settings: KRAS G12V, GppNHp-loaded; Table 11
# Procedure, shortened: as §1
row,Compound,IC50 [nM]
1,N#Cc1c(N)sc2c(F)ccc(-c3c(C(F)(F)F)cc4c(N5CCN(CCO)C(=O)C5)nc(OC[C@@]56CCCN5C[C@H](F)C6)nc4c3F)c12 [Compound 121],100 to 1000
2,N#Cc1c(N)sc2c(F)ccc(-c3c(C(F)(F)F)cc4c(N5CC[C@H](CO)C5)nc(OC[C@@]56CCCN5C[C@H](F)C6)nc4c3F)c12 [Compound 123],100 to 1000
3,N#Cc1c(N)sc2c(F)ccc(-c3c(C(F)(F)F)cc4c(N5CC[C@@H](CO)C5)nc(OC[C@@]56CCCN5C[C@H](F)C6)nc4c3F)c12 [Compound 124],100 to 1000
4,N#Cc1c(N)sc2c(F)ccc(-c3c(C(F)(F)F)cc4c(N5CC[C@H](O)C5)nc(OC[C@@]56CCCN5C[C@H](F)C6)nc4c3F)c12 [Compound 125],100 to 1000
5,N#Cc1c(N)sc2c(F)ccc(-c3c(C(F)(F)F)cc4c(N5CC[C@@H](O)C5)nc(OC[C@@]56CCCN5C[C@H](F)C6)nc4c3F)c12 [Compound 126],100 to 1000
6,N#Cc1c(N)sc2c(F)ccc(-c3c(C(F)(F)F)cc4c(N5CCC(O)CC5)nc(OC[C@@]56CCCN5C[C@H](F)C6)nc4c3F)c12 [Compound 127],100 to 1000

# Biological target: T4, Avi-KRAS WT (1-169) GppNHp/RAF1 RBD-3xFLAG (52-151) (Homo sapiens, UniProt P01116)
# T4 construct: Avi-KRAS WT (1-169)
# T4 sequence (P01116 1-169 isoform P01116-2): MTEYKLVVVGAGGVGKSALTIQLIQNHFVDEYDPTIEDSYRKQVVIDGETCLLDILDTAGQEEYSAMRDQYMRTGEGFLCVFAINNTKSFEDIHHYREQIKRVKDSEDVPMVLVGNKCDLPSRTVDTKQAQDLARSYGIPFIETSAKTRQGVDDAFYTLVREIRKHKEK
# Assay: Raf1-KRAS WT-GppNHP disruption HTRF assay (Biological Example 1)
# Format: binding
# Settings: KRAS WT, GppNHp-loaded; Table 11
# Procedure, shortened: as §1
row,Compound,IC50 [nM]
1,N#Cc1c(N)sc2c(F)ccc(-c3c(C(F)(F)F)cc4c(N5CCN(CCO)C(=O)C5)nc(OC[C@@]56CCCN5C[C@H](F)C6)nc4c3F)c12 [Compound 121],100 to 1000
2,N#Cc1c(N)sc2c(F)ccc(-c3c(C(F)(F)F)cc4c(N5CC[C@H](CO)C5)nc(OC[C@@]56CCCN5C[C@H](F)C6)nc4c3F)c12 [Compound 123],100 to 1000
3,N#Cc1c(N)sc2c(F)ccc(-c3c(C(F)(F)F)cc4c(N5CC[C@@H](CO)C5)nc(OC[C@@]56CCCN5C[C@H](F)C6)nc4c3F)c12 [Compound 124],100 to 1000
4,N#Cc1c(N)sc2c(F)ccc(-c3c(C(F)(F)F)cc4c(N5CC[C@H](O)C5)nc(OC[C@@]56CCCN5C[C@H](F)C6)nc4c3F)c12 [Compound 125],100 to 1000
5,N#Cc1c(N)sc2c(F)ccc(-c3c(C(F)(F)F)cc4c(N5CC[C@@H](O)C5)nc(OC[C@@]56CCCN5C[C@H](F)C6)nc4c3F)c12 [Compound 126],100 to 1000
6,N#Cc1c(N)sc2c(F)ccc(-c3c(C(F)(F)F)cc4c(N5CCC(O)CC5)nc(OC[C@@]56CCCN5C[C@H](F)C6)nc4c3F)c12 [Compound 127],100 to 1000
